Results published in patent publication US11673899B2, “Crystal form of thieno[2,3-c]pyridazine-4(1H)-one compound, preparation method therefor and use thereof” (ZHANGZHOU PIEN TZE HUANG PHARMACEUTICAL CO., LTD., priority 2019, dated 2023).

Columns and labels:
[1] = Stability of crystal form to light, heat and humidity; type: physicochemical; settings: solid crystal form
[2] = test system: HFD+CCl4-induced NASH mouse model; assay: In vivo pharmacodynamic study in HFD+CCl4-induced NASH mouse model; settings: HFD+CCl4 mice; 0.5, 1, 3 mg/kg by gavage QD day 0 to day 27; reference I-181 3 mg/kg
Text: To study the effect of a compound on improving NASH and liver fibrosis in an HFD+CCl4 mouse model, with I-181 as a reference compound.
I-181 is an acetyl-CoA carboxylase inhibitor and is currently undergoing a phase II clinical study on non-alcoholic fatty liver disease (NAFLD). The HFD+CCl4 mouse model used in this study is an animal model that simulates human non-alcoholic fatty liver disease evolving into NASH. High-fat diet leads to fat accumulation and steatosis in liver cells; CCl4 (intraperitoneal injection, twice a week) simulates the “second hit” of liver injury.
The modeling for this experiment included two steps: high-fat diet feeding and CCl4 induction. Firstly, the mice were fed with high-fat diet to induce non-alcoholic fatty liver, and the mice weighing more than (>) 38 g were selected and continuously fed with high-fat diet, accompanied by the intraperitoneal injection of 25% CCl4 ([…], twice a week, for a total of four weeks). The day of starting CCl4 administration was set as day 0, and the time of starting CCl4 administration was set as hour 0. On the day of starting CCl4 administration, the administration by gavage was started, and the administration volume of each group was 5 mL/kg, once a day for 4 weeks (28 days). The injection time of CCl4 should be more than 4 hours apart from the first administration time point of the day. […]

Row | SMILES | Stability (light, heat and humidity) [1] | Efficacy in NAS [2] | Efficacy in fibrosis [2]
1 | COc1ccccc1[C@H](Cn1nc(C(C)(C)C(=O)O)c(=O)c2c(C)c(-c3ncco3)sc21)OC1CCOCC1 | stable, and less affected by light, heat and humidity |  | 
2 | COc1ccccc1[C@H](Cn1nc(C(C)(C)C(=O)O)c(=O)c2c(C)c(-c3ncco3)sc21)OC1CCOCC1 [Compound of formula (I)] |  | the same efficacy as the reference compound at a higher dose | the same efficacy as the reference compound at a higher dose
